Positions count from the first letter of the chain named. Where “and” joins values, the source holds several entries; their conditions need not be identical. Identical values can stand only once.
Legend:
Assay type in all cases: cell-based
hTA1 W264F = target: T1, hTA1 W264F (Homo sapiens, UniProt Q96RJ0, W264F); experiment: GloSensor cAMP accumulation assay, W264F mutant;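 note: cells transiently transfected with receptor plus GloSensor, luminescence read 30 min after agonist addition at room temperature, concentration-response curves fitted by log(agonist) vs response regression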
T1 construct: expressed in transfected cells; host or cells: HEK293T
T1 sequence (Q96RJ0 1-339 W264F): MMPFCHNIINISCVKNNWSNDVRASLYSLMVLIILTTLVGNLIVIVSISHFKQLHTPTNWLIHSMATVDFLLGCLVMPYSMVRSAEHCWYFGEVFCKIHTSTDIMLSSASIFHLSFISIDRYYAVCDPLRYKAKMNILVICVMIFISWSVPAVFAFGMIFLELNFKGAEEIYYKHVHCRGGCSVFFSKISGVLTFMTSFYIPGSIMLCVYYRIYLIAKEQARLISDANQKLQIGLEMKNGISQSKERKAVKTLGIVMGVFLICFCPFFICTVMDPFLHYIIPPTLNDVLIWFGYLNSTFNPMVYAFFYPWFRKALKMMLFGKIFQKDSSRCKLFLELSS

hTA1 C96S = target: T2, hTA1 C96S (Homo sapiens, UniProt Q96RJ0, C96S); experiment: GloSensor cAMP accumulation assay, C96S mutant; details: log[Compound]
T2 construct: expressed in transfected cells; host or cells: HEK293T
T2 sequence (Q96RJ0 1-339 C96S): T1 sequence (Q96RJ0 1-339 W264F) with C96S, F264W

hTA1 I290N = target: T3, hTA1 I290N (Homo sapiens, UniProt Q96RJ0, I290N); experiment: GloSensor cAMP accumulation assay, I290N mutant;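 note: cells transiently co-expressing hTA1 and the GloSensor cAMP biosensor, luminescence read 30 min after compound addition at room temperature, efficacy scaled to the maximal β-PEA response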
T3 construct: expressed in transfected cells; host or cells: HEK293T
T3 sequence (Q96RJ0 1-339 I290N): T1 sequence (Q96RJ0 1-339 W264F) with F264W, I290N

hTA1 F195T = target: T4, hTA1 F195T (Homo sapiens, UniProt Q96RJ0, F195T); experiment: GloSensor cAMP accumulation assay, F195T mutant;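 note: cells transiently co-expressing HA-FLAG-tagged hTA1 and the GloSensor cAMP biosensor, luminescence read 30 min after agonist addition at room temperature, concentration-response fitted by nonlinear regression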
T4 construct: expressed in transfected cells; host or cells: HEK293T
T4 sequence (Q96RJ0 1-339 F195T): T1 sequence (Q96RJ0 1-339 W264F) with F195T, F264W

hTA1 T271A = target: T5, hTA1 T271A (Homo sapiens, UniProt Q96RJ0, T271A); experiment: GloSensor cAMP accumulation assay, T271A mutant
T5 construct: expressed in transfected cells; host or cells: HEK293T
T5 sequence (Q96RJ0 1-339 T271A): T1 sequence (Q96RJ0 1-339 W264F) with F264W, T271A

[1] = hTA1 I290N mutant minus WT average

NCCc1ccccc1 [β-PEA, β-phenethylamine]
ΔEmax values (each mutant value - WT average) (hTA1 W264F; W246F mutant (so in the source) minus WT average): 0
pEC50 values, Mean (hTA1 W264F; W246F mutant (so in the source), each line an independent experiment, 3 replicates): 5.329 and 5.8775
Emax values, Mean (hTA1 W264F; W246F mutant (so in the source), β-PEA = 100, each line an independent experiment, 3 replicates): 100
Span ± SEM (Emax normalized to β-PEA) (hTA1 W264F; W264F, n=2): 100 ± 4.75
pEC50 ± SEM (hTA1 W264F; W264F, n=2): 5.6 ± 0.06
EC50 (hTA1 W264F; W264F, n=2, read-out: EC50): 2490 nM
Normalized Luminescence Counts (hTA1 C96S; C96S, M = -5, single replicates (N=2)): 35.6736 and 42.2638 and 54.1262 and 8.922 and 12.7948 and 20.5413
Normalized Luminescence Counts (hTA1 C96S; C96S, M = -5.522, single replicates (N=2)): 25.7883 and 20.5161 and 22.4932 and 16.6681 and -2.698 and 8.922
Normalized Luminescence Counts (hTA1 C96S; C96S, M = -6, single replicates (N=2)): 12.6079 and 10.6308 and 7.995 and -2.698 (2×) and 5.048
Normalized Luminescence Counts (hTA1 C96S; C96S, M = -6.522, single replicates (N=2)): 0.7455 (2×) and 3.382 and 1.175 and -6.571 (2×)
Normalized Luminescence Counts (hTA1 C96S; C96S, M = -7, single replicates (N=2)): 0.7455 and -1.232 and -0.5726 and -2.698 (2×) and -6.571
Normalized Luminescence Counts (hTA1 C96S; C96S, M = -7.522, single replicates (N=2)): -0.5726 and -1.891 and 0.08646 and -4.6346 (2×) and -6.571
Normalized Luminescence Counts (hTA1 C96S; C96S, M = -8, single replicates (N=2)): 2.064 and 0.7455 and -0.5726 and 1.175 and 6.985 and 5.048
Normalized Luminescence Counts (hTA1 C96S; C96S, M = -8.522, single replicates (N=2)): 2.723 and -1.232 and -1.891 and 6.985 and 1.175 and 8.922
Normalized Luminescence Counts (hTA1 C96S; C96S, M = -9, single replicates (N=2)): -0.5726 and 0.08646 and -1.232 and 10.8582 and 1.175 and -0.7614
Normalized Luminescence Counts (hTA1 C96S; C96S, M = -9.522, single replicates (N=2)): 2.064 and -3.209 and -1.232 and -2.698 (2×) and 3.112
Normalized Luminescence Counts (hTA1 C96S; C96S, M = -10, single replicates (N=2)): 0.08646 and -0.5726 and -1.232 and -8.508 and -2.698 and -0.7614
Normalized Luminescence Counts (hTA1 C96S; C96S, M = -10.522, single replicates (N=2)): 4.7 and -1.232 and -1.891 and -10.4444 and -0.7614 and -2.698
Normalized Luminescence Counts (hTA1 C96S; C96S, M = -11, single replicates (N=2)): 2.723 and -0.5726 and 0.7455 and -10.4444 and 3.112 and 1.175
Normalized Luminescence Counts (hTA1 C96S; C96S, M = -11.522, single replicates (N=2)): 0.08646 and 2.064 and -2.55 and -10.4444
Normalized Luminescence Counts (hTA1 C96S; M = -11.522, single replicates, mutant block above C178S): -0.6791 and -0.9294 and -0.1556 and 1.551 and 0.7492 and 1.23
Normalized Luminescence Counts (hTA1 C96S; M = -12, single replicates, mutant block above C178S): -0.6108 and -0.9294 and -0.5425 and 1.07 and 0.8561 and 1.283
Normalized Luminescence Counts (hTA1 C96S; M = -12.522, single replicates, mutant block above C178S): -0.7929 and -0.6336 and -1.02 and 1.337 and 1.283 and 0.8561
Span ± SEM (Emax normalized to β-PEA) (hTA1 I290N; I290N, n=2): 100 ± 2.5
pEC50 ± SEM (hTA1 I290N; I290N, n=2): 7.26 ± 0.06
EC50 (hTA1 I290N; I290N, n=2, read-out: EC50): 54.7 nM
cAMP accumulation response, single replicate values (source data, Supplementary Figure 5) (hTA1 I290N; hTA1 I290N (N=2), log[Compound], M = -5): 123.698 and 115.527 and 100.651 and 114.899
ΔEmax values (each mutant value - WT average), Mean (hTA1 I290N; [1]): 0
ΔpEC50 values (each mutant value - WT average), Mean (hTA1 I290N; [1]): 0.1524 and 0.1839
pEC50 values, Mean (hTA1 I290N; hTA1 I290N mutant, Figure 3B source data, each grid row a separate experiment, 3 replicates): 7.2459 and 7.277
Emax values, Mean (hTA1 I290N; hTA1 I290N mutant, β-PEA set to 100, each grid row a separate experiment, 3 replicates): 100
increase in potency vs wild type (hTA1 F195T; F195T): ~ 3.5 fold
ΔpEC50 values (each mutant value - WT average), Mean (hTA1 F195T; F195T mutant minus WT average, Figure 5B): 0.6087 and 0.4606
pEC50 values, Mean (hTA1 F195T; F195T mutant, Figure 5B, each row one independent experiment (3 replicates)): 7.7022 and 7.554
Emax values, Mean (hTA1 F195T; F195T mutant, Figure 5B, β-PEA = 100, each row one independent experiment (3 replicates)): 100
Span ± SEM (Emax normalized to β-PEA) (hTA1 F195T; F195T, n=2): 100
pEC50 ± SEM (hTA1 F195T; F195T, n=2): 7.63 ± 0.07
EC50 (hTA1 F195T; F195T, n=2, read-out: EC50): 23.5 nM
reduction in potency vs wild type (hTA1 T271A; T271A): about 10 fold
ΔpEC50 values (each mutant value - WT average), Mean (hTA1 T271A; T271A mutant minus WT average, Figure 5B): -1.015 and -0.8638
pEC50 values, Mean (hTA1 T271A; T271A mutant, Figure 5B, each row one independent experiment (3 replicates)): 6.079 and 6.23
Emax values, Mean (hTA1 T271A; T271A mutant, Figure 5B, β-PEA = 100, each row one independent experiment (3 replicates)): 100
Span ± SEM (Emax normalized to β-PEA) (hTA1 T271A; T271A, n=2): 100 ± 2.03
pEC50 ± SEM (hTA1 T271A; T271A, n=2): 6.15 ± 0.03
EC50 (hTA1 T271A; T271A, n=2, read-out: EC50): 701 nM
